Assay results taken from PMC10607377, “The PKG Inhibitor CN238 Affords Functional Protection of Photoreceptors and Ganglion Cells against Retinal Degeneration” (International Journal of Molecular Sciences, 2023).

Key:
[1] = molecular target: T1, cone CNG channel (CNGA3) (Homo sapiens, UniProt Q16281+Q9NQW8); assay: inside-out patch-clamp, concentration-activation; format: cell-based
T1 construct: CNGA3:CNGB3 expressed in Xenopus oocytes; with CNGB3
T1 sequence (Q16281 1-694): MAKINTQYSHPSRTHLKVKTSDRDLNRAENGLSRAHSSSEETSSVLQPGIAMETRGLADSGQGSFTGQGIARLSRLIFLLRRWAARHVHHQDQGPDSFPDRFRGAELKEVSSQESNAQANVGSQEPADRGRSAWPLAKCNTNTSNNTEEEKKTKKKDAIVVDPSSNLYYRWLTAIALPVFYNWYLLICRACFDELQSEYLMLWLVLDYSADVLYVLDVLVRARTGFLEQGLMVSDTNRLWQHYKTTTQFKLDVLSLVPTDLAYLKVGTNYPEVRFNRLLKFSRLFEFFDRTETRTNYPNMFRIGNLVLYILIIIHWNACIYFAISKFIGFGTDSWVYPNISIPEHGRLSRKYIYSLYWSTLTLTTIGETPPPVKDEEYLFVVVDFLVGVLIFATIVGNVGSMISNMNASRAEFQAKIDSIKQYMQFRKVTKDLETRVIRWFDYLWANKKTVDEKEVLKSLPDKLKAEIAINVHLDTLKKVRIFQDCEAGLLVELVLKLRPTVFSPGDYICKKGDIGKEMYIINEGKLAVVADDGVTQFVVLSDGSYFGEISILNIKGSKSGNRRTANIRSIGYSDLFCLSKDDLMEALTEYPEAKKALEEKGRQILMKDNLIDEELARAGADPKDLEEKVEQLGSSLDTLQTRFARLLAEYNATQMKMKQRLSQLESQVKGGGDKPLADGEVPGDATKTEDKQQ
T1 sequence (Q9NQW8 1-809): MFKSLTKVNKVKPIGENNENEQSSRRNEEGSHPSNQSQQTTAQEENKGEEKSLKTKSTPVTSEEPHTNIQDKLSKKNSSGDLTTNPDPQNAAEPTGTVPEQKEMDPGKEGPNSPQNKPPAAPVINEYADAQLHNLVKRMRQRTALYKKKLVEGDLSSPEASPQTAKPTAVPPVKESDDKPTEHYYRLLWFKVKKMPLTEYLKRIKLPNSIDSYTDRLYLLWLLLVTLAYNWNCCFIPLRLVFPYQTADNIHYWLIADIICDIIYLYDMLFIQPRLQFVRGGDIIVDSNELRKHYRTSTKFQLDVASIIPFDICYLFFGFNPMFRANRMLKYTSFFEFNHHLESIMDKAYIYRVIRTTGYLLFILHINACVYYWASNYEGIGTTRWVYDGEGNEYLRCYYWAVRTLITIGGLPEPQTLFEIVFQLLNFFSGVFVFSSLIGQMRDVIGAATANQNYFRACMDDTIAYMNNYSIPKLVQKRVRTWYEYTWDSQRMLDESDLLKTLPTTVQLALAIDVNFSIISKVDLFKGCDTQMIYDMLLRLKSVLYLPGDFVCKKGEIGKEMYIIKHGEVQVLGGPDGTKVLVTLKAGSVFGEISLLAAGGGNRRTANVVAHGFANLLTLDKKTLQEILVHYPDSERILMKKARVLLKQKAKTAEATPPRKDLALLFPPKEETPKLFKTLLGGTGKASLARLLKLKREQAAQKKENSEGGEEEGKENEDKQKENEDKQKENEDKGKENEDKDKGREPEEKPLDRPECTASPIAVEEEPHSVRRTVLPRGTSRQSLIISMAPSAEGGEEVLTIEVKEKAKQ

[2] = molecular target: T2, PKG2 (Homo sapiens, UniProt Q13237); assay: coupled spectrophotometric kinase activation assay; format: biochemical
T2 construct: gene PRKG2; FLAG-Strep-Strep-tagged human PKG2 (1–762) WT
T2 sequence (Q13237 1-762): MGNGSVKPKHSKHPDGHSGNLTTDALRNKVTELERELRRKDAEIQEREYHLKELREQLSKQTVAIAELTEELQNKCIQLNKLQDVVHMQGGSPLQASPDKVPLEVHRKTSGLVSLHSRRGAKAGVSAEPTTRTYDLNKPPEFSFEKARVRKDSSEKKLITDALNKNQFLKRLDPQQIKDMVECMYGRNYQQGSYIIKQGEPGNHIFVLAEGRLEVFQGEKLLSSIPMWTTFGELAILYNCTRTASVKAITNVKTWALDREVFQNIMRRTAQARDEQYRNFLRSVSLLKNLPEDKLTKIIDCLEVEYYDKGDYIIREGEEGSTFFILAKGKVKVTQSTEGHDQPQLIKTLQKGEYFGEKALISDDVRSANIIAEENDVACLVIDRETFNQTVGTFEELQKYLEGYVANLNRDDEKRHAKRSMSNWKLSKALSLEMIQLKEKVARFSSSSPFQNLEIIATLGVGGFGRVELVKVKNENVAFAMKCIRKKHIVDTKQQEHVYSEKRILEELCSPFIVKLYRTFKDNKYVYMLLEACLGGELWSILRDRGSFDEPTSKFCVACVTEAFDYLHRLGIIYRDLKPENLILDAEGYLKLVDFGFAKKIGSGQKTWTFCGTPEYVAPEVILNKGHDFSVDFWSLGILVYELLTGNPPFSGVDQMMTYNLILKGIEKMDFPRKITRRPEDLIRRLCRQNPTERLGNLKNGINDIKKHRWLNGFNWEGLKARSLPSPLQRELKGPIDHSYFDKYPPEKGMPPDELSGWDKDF

[3] = molecular target: T3, PKG1β (Homo sapiens, UniProt Q13976)
T3 construct: gene PRKG1
T3 sequence (Q13976 4-686 isoform Q13976-2): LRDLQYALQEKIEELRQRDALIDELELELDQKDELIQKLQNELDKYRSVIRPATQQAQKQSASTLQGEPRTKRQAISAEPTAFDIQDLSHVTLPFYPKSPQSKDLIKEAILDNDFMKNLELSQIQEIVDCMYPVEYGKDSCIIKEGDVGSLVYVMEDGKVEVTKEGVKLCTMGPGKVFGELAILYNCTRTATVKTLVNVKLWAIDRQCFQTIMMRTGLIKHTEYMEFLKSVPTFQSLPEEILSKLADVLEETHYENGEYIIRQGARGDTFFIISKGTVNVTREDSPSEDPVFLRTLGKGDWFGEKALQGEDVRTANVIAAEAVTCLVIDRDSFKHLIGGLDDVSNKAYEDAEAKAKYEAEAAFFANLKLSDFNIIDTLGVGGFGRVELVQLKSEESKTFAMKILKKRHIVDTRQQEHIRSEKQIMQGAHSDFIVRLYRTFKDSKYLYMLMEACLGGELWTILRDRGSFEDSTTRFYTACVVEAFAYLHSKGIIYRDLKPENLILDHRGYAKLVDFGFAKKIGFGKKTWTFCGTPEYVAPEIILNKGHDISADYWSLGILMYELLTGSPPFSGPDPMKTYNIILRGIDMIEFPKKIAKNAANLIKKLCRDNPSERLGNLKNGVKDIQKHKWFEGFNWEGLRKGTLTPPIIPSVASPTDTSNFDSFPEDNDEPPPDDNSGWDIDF

EC50 [1]: 10.7 µM
Structure (SMILES): Nc1nc2c(ncn2[C@@H]2O[C@@H]3COP(=O)(O)O[C@H]3[C@H]2O)c(=O)[nH]1 [cGMP]
coupled spectrophotometric kinase activation assay [2]: Activation with cGMP was determined for all PKG isoforms | coupled spectrophotometric kinase activation assay [3]: Activation with cGMP was determined for all PKG isoforms
